Reference: article PMC5006645 (EBioMedicine, 2016)

How the values were obtained:
[1] = Glucose tolerance test in DIO mice; format: in vivo, C57BL/6 mice; settings: DIO animals, 25 mg/kg/d, 4 weeks
[2] = test system: non-adherent bone marrow cells; assay: Osteoclastogenesis assay from non-adherent bone marrow cells; format: cell-based; settings: ex vivo; 10 μM SR10171 or 1 μM rosiglitazone; M-CSF and RANKL
S273pPPARγ = assay: Inhibition of S273 phosphorylation of PPARγ; format: biochemical
[3] = test system: trabecular and cortical bone of lean C57BL/6 mice; settings: 15 mg/kg/d, 8 weeks; previously established, ref not given; cited from earlier work
[4] = test system: TCF/LIF/β-catenin complex; assay: Top-Flash luciferase reporter in U33/γ2 cells; format: cell-based; settings: 72 h
[5] = test system: trabecular and cortical bone of lean C57BL/6 mice; assay: Lean mice experiment: bone mCT and histomorphometry; settings: for mineral apposition rate (MAR) and bone formation rate (BFR): proximal tibia
PPARα = molecular target: T1, PPARα (Homo sapiens, UniProt Q07869)
T1 sequence (Q07869 200-468 limits assumed): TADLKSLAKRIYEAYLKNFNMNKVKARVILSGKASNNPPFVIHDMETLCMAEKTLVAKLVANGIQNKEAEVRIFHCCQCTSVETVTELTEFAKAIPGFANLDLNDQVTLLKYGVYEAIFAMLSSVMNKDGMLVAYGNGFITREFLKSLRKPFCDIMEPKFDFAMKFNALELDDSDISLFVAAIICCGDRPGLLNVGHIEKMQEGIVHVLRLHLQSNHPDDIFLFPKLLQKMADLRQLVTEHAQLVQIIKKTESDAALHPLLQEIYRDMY

[6] = test system: osteocytes from femora cortical bone; assay: Gene expression in osteocytes freshly isolated from femora of treated animals; format: in vivo, C57BL/6 mice
PPARγ = format: cell-based; settings: AD2 cells; 1 μM rosiglitazone or 5 μM SR10171 1 h, then TNF-α 50 ng/ml 1 h
[7] = Plasma levels at the end of experiments; format: in vivo, C57BL/6 mice; settings: for concentration at 4 days: C57BL/6, mouse, plasma, 5 mg/kg/d
cortical bone = assay: Cortical tissue mineral density; format: in vivo, C57BL/6 mice; settings: mouse model not stated; control 954.6 ± 17.6
marrow MSCs = assay: Marrow MSC cultures: adipocyte markers and CFU-OB osteoblast differentiation; format: cell-based; settings: marrow MSC culture, 6 days; 10 μM SR10171 or 1 μM rosiglitazone
[8] = test system: bone and marrow fat of DIO C57BL/6 mice; format: in vivo
[9] = Body weight of treated mice; format: in vivo, C57BL/6 mice
[10] = midshaft tibia, calcein labeling

With `CN(CCOc1ccc(CC2SC(=O)NC2=O)cc1)c1ccccn1` (racemic) [Rosiglitazone, (RS)-5-[4-(2-[methyl(pyridin-2-yl)amino]ethoxy)benzyl]thiazolidine-2,4-dione, reference compound] the glucose tolerance [1] was “normalized”, the “number of multi-nucleated TRAP-positive osteoclast-like cells” value [2] was “increased” and the “% inhibition S273pPPARγ (20 μM)” value (S273pPPARγ; 20 μM) was 100%. The “decrease of bone mass” value [3] was 20%, the “β-catenin transcriptional activity (Top-Flash)” value [4] was “decreased” and the “increase of adipocyte number” value ([5]; 15 mg/kg/d, 8 weeks) was 5 fold. For the same molecule, the trabecular bone mass ([5]; 15 mg/kg/d, 8 weeks) was “decreased”, the “mineral apposition rate (MAR) and bone formation rate (BFR)” value ([5]; 15 mg/kg/d, 8 weeks) was “attenuated” and the “EC50 PPARα GAL-4” value (PPARα) was “No activity”. The “Dkk1 expression in osteocytes of treated animals” value [6] was “increased”, the “Sost expression in osteocytes of treated animals” value [6] was “unaffected” and the “phosphorylation of S112 of PPARγ” value (PPARγ) was “alters”. The “phosphorylation of S273 of PPARγ” value (PPARγ) was “block”, the concentration at 4 days [7] was 1670 nM and the “cortical tissue mineral density (TMD)” value (cortical bone) was 954.5 ± 17.9 mg HA/cm^3. The “basal expression of Fabp4 and Adipoq” value (marrow MSCs) was “increased”.

With `Cc1c(C)n(Cc2cccc(OC(C)(C)C(=O)O)c2)c2ccc(C(=O)N[C@@H](C)c3ccc(C(C)(C)C)cc3)cc12` [SR10171, (S)-2-(3-((5-((1-(4-(tert-butyl)phenyl)ethyl)carbamoyl)-2,3-dimethyl-1H-indol-1-yl)methyl)phenoxy)-2-methylpropanoic acid] the “decrease in marrow fat volume vs no drug control” value ([8]; 25 mg/kg/d, 4 weeks, tibia) was about 5 fold, the “periosteal labeling, times larger than control” value [8, 10] was 9 fold and the glucose tolerance [1] was “normalized”. For the same molecule, the “number of multi-nucleated TRAP-positive osteoclast-like cells” value [2] was “increased”, the “S273 phosphorylation blocking activity, lower than rosiglitazone” value (S273pPPARγ; relative to rosiglitazone) was 50% and the “Trabecular bone mass in proximal tibia, increase vs non-treated controls” value ([5]; 15 mg/kg/d, 8 weeks) was 26%. For the same molecule, the “decrease of number of marrow adipocytes” value ([5]; 15 mg/kg/d, 8 weeks) was 50%, the “periosteal labeling, times larger than control” value [5, 10] was 1.5 fold and the “mineral apposition rate (MAR) and bone formation rate (BFR)” value ([5]; 15 mg/kg/d, 8 weeks) was “increase”. For the same molecule, the body weight ([9]; DIO mice maintained on HFD, 25 mg/kg/d, 4 weeks) was “decreased”, the body weight ([9]; lean animals, 15 mg/kg/d, 8 weeks) was “no impact” and the “Dkk1 expression in osteocytes of treated animals” value [6] was “decreased”. The “Sost expression in osteocytes of treated animals” value [6] was “decreased”, the concentration at 4 days [7] was 4010 nM and the “retention levels in plasma, higher than rosiglitazone” value ([7]; animals treated for 4 days) was 2.5 fold. The “cortical tissue mineral density (TMD)” value (cortical bone) was 978.6 ± 10.4 mg HA/cm^3 and the “basal expression of Fabp4 and Adipoq” value (marrow MSCs) was “decreased”.
